Several values for one entry are separate records, joined by “and”; a condition that tells them apart may be missing. Equal entries are not always repeated.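 Cells were grown in 96-well plates and exposed to each compound for 48 hours at five concentrations; endpoints were interpolated linearly between bracketing concentrations, or set to the highest concentration if not reached. GI50 marks 50% less growth. The concentration for full growth arrest is given as TGI.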

Among the test systems are DLD-1 colon; DMS 114 small cell lung; HOP-18 NSCLC; M19-MEL melanoma; SNB-78 CNS; XF 498 CNS; DMS 273 small cell lung; RXF-631 renal; MDA-N.
Assay in all cases: NCI-60 cell line screen, 48 h

Take `CC1NCCc2c1[nH]c1cc(O)ccc21` (centres undefined): the TGI with DLD-1 colon, with DMS 114 small cell lung, in the test on HOP-18 NSCLC, with M19-MEL melanoma, in the test on SNB-78 CNS and with XF 498 CNS was > 100 µM throughout.

Turning to `CCOC(=O)N1CCc2cc(OC)c(OC)cc2/C1=C/c1ccc(OC)c(OC)c1`, the TGI with DLD-1 colon, with DMS 114 small cell lung, in the test on DMS 273 small cell lung, in the test with HOP-18 NSCLC, in the test on M19-MEL melanoma and with SNB-78 CNS was > 100 µM each time. The molecule also came in with a TGI in the test on XF 498 CNS of 98 µM.

With `CN(C)CCC(=O)N1CCc2c([nH]c3ccccc23)C1c1cccnc1` (centres undefined), the TGI in the test on DLD-1 colon, in the test with DMS 114 small cell lung, in the test on DMS 273 small cell lung, in the test with HOP-18 NSCLC, in the test with M19-MEL melanoma and with RXF-631 renal was > 100 µM each time. Further, the TGI in the test on SNB-78 CNS and with XF 498 CNS was > 100 µM each time.

For `O=C(O)c1nnsc1-c1csnn1`, in the test on MDA-N, the TGI is > 100 µM.

Regarding `CN(C)CCC(/C=C/c1ccccc1)=N\Nc1ccc(Cl)cc1`, the TGI in the test with DLD-1 colon stood at 11.1 µM; in the test with DMS 114 small cell lung it was 5.9 µM; in the test with DMS 273 small cell lung it was 4.66 µM; in the test on HOP-18 NSCLC, 17 µM; in the test on M19-MEL melanoma it was 19.7 µM; with SNB-78 CNS it was 21.4 µM.

As for `C=C[Si](C)(C)COC(=O)/C(C#N)=C/C=C/c1ccccc1`, the TGI with DLD-1 colon, in the test with DMS 114 small cell lung, in the test with DMS 273 small cell lung, in the test with HOP-18 NSCLC, in the test with M19-MEL melanoma and with SNB-78 CNS was > 100 µM in each case.

Consider `NC1=NCC(c2ccccn2)C1c1ccc(F)cc1` (centres undefined), for which the TGI in the test with DLD-1 colon, in the test on DMS 114 small cell lung, with HOP-18 NSCLC, in the test with M19-MEL melanoma, in the test with RXF-631 renal and with SNB-78 CNS was > 100 µM throughout. The TGI with XF 498 CNS is > 100 µM.

Turning to `CCCCCCCC(=O)NS(=O)(=O)c1ccccc1`, the TGI with MDA-N was > 100 µM.

As to `Cc1[nH]c(=O)nc(N/N=C/c2ccc(Cl)cc2)c1C(=O)Nc1ccc(Cl)cc1`, the TGI in the test on DLD-1 colon was > 100 µM; in the test with DMS 114 small cell lung, 56.1 µM; with DMS 273 small cell lung, > 100 µM; with HOP-18 NSCLC it was 7.3 µM; with M19-MEL melanoma it was > 100 µM; in the test with MDA-N, > 100 µM. Moreover, the TGI in the test with SNB-78 CNS was > 100 µM; in the test with XF 498 CNS, 25.2 µM.

For the molecule `Cc1cc(Cl)cc2c1NC(=O)C2(O)CC(=O)c1ccc(F)cc1` (centres undefined), the TGI is > 100 µM with DLD-1 colon; > 100 µM with DMS 273 small cell lung; 90.7 µM with HOP-18 NSCLC; 17.9 µM with M19-MEL melanoma; > 100 µM with SNB-78 CNS; 66.4 µM in the test on XF 498 CNS.

With `Cc1cccc(Cl)c1NC(=O)c1cccc([N+](=O)[O-])c1O`, the TGI with DLD-1 colon was > 100 µM; with DMS 114 small cell lung, 83.1 µM; with DMS 273 small cell lung, > 100 µM; in the test with HOP-18 NSCLC, > 100 µM; in the test on RXF-631 renal, > 100 µM; in the test with SNB-78 CNS it was > 100 µM. Also, in the test with XF 498 CNS, the TGI is > 100 µM.

As for `COC1C(O)CC(OC2CC(OC3CC(O[C@@H]4C(=O)c5c(cc6cc(OC7CC(OC8CC(O)C(O)C(C)O8)C(O)C(C)O7)c(C)c(O)c6c5O)C[C@H]4[C@H](OC)C(=O)[C@@H](O)[C@@H](C)O)OC(C)C3O)OC(C)C2O)OC1C` (some centres undefined), the TGI in the test on DLD-1 colon was > 100 µM; with DMS 114 small cell lung, 4.5 µM; in the test on DMS 273 small cell lung, 1.67 µM; with HOP-18 NSCLC it was 36 µM; with M19-MEL melanoma, > 100 µM; with SNB-78 CNS, > 100 µM. This molecule also returned a TGI in the test on XF 498 CNS of 0.191 µM.

In the case of `COC(=O)C1=CO[C@@H](OC2OC(CO)C(O)C(O)C2O)[C@@H]2[C@H](C)[C@@H](O)[C@@H](O)[C@]12O` (some centres undefined), in the test on MDA-N, the TGI was > 100 µM.

For the molecule `CCOC(=O)C(O)Cc1cnc2ccccc2n1` (centres undefined), in the test with MDA-N, the TGI was > 100 µM.

In the case of `O=[N+]([O-])c1ccc2nc3ccscc-3c2c1`, the TGI was > 100 µM in the test on DLD-1 colon; 39.6 µM with DMS 114 small cell lung; > 100 µM in the test on DMS 273 small cell lung; > 100 µM in the test with HOP-18 NSCLC; 61.8 µM in the test with M19-MEL melanoma; > 100 µM in the test on RXF-631 renal. For the same molecule, the TGI is 90 µM in the test on SNB-78 CNS and 87.2 µM in the test on XF 498 CNS.

For the molecule `Clc1ccc(N/N=C(\c2ccccc2)c2ccccn2)nc1`, the TGI in the test with MDA-N is 26.5 µM.

Regarding `CC(=O)OCC1OC(n2c(=S)n(-c3ccccc3)c(=O)c3cc(Br)ccc32)C(OC(C)=O)C(OC(C)=O)C1OC(C)=O` (centres undefined), the TGI in the test on DLD-1 colon, in the test with DMS 114 small cell lung, in the test with DMS 273 small cell lung, in the test on M19-MEL melanoma, with RXF-631 renal and in the test on SNB-78 CNS was > 100 µM each time. In the test on XF 498 CNS, the TGI was 61.2 µM and > 100 µM. In addition, the GI50 with SNB-78 CNS is 41.5 µM and > 10 µM; in the test with XF 498 CNS, 23.6 µM and > 100 µM.

Consider `Cc1cccc2cc3cccc(C(=O)NCCN(C)C)c3nc12`, for which the TGI in the test on DLD-1 colon worked out at 5.11 µM; in the test with DMS 114 small cell lung, 1.02 µM; in the test with DMS 273 small cell lung, 0.926 µM; in the test on HOP-18 NSCLC, 9.35 µM; in the test on M19-MEL melanoma it was 0.847 µM; in the test with RXF-631 renal, 27.7 µM. In the test on SNB-78 CNS, this molecule registered a TGI of 11.4 µM.

Take `O=C1[C@@H]2C(c3ccncc3)=NO[C@@H]2C(=O)N1c1ccc(Cc2ccc(N3C(=O)[C@H]4C(c5ccncc5)=NO[C@H]4C3=O)cc2)cc1`: the TGI with DLD-1 colon, in the test on DMS 114 small cell lung, with DMS 273 small cell lung, with HOP-18 NSCLC, with M19-MEL melanoma and with RXF-631 renal was > 100 µM each time. In addition, the TGI in the test with SNB-78 CNS was > 100 µM.

These data come from PubChem BioAssay (NCI).
